One molecule from ChEMBL document CHEMBL4616701, “Design, Synthesis, and Pharmacological Evaluation of Second Generation EZH2 Inhibitors with Long Residence Time” (ACS Med Chem Lett, 2020) can be followed below.

What is called GI50 is the concentration giving 50% growth inhibition. As usually defined, the clearance is a measure of how efficiently the substance is removed, as volume per time. High values mean efficient removal, low ones inefficient removal. For orientation: EC50 means the concentration that produces a half-maximal response. Usually IC50 stands for the midpoint of a concentration-inhibition curve. Read a high IC50 as weaker potency. Broadly, the bioavailability is dose-corrected exposure relative to a reference, in per cent. Low readings indicate poor availability, high ones good availability.

Series [1] deals with KARPAS-422. The experiment in a line: Antiproliferative activity against human KARPAS422 cells assessed as growth inhibition after 8 days by Cell Titer-Glo luminescent assay. The series is classed as functional. The conditions noted are these: KARPAS-422, 192 h. For orientation: Cellular ATP, detected with luciferase, serves as a proxy for viable cell number.
A short description of series [2]: Dose normalized AUClast in CB-17 SCID mouse xenografted with human KARPAS422 cells at 25 mg/kg, po bid for 21 days and measured after 10 hrs post first dose at day 1 by LC-MS analysis. It is filed as ADME, organism-based, KARPAS-422. The conditions noted are these: in vivo.
Another series has as its system CYP3A4. The series can be described thus: Upregulation of CYP3A4 mRNA expression in human Fa2N-4 cells at 10 uM after 3 days relative to control. The conditions noted are these: read-out: FC. The series is classed as ADME, cell-based.
Series [3] in a line: Clearance in iv dosed mouse. It is filed as ADME, organism-based. The conditions noted are these: in vivo.
The subject of series [4] is KARPAS-422. The series can be described thus: Antitumor activity against human KARPAS422 cells xenografted in CB-17 SCID mouse assessed as tumor regression at 25 mg/kg, po bid and measured on day 14 by caliper method. The series is classed as functional, organism-based. (In general: Xenograft models place foreign cells or tissue in a host animal.)
Series [5] can be described thus: Toxicity in CB-17 SCID mouse xenografted with human KARPAS422 cells assessed as effect on body weight at 25 mg/kg, po bid and measured on day 21. The series is classed as organism-based, KARPAS-422. As to conditions: in vivo.
Series [6] has as its target T1, Histone-lysine N-methyltransferase EZH2 (Homo sapiens, UniProt Q15910). The series can be described thus: Inhibition of EZH2 in human HeLa cells assessed as inhibition of trimethylation of H3K27 after 72 hrs by AlphaLISA assay. The series is classed as cell-based.
Target sequence in this assay (Q15910 whole entry): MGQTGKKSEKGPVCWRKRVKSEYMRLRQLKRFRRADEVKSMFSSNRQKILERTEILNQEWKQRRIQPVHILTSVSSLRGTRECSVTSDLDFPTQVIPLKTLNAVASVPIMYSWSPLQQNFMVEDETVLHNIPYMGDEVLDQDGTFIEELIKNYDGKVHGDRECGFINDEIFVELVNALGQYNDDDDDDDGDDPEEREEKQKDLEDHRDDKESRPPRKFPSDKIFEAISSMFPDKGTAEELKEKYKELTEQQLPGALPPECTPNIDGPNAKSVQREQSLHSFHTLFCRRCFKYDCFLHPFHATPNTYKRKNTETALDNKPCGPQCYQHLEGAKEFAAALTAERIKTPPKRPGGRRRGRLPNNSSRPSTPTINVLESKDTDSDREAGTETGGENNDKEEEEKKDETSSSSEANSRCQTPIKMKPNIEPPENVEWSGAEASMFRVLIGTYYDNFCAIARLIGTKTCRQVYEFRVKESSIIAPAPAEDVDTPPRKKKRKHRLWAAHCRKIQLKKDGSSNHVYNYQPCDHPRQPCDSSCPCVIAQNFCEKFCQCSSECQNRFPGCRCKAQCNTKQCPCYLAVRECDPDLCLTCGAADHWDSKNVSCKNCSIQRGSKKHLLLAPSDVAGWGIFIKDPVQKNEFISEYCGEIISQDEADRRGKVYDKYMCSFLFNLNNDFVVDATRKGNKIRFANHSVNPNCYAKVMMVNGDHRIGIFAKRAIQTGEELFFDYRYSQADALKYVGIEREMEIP
A short description of series [7]: Time during which free drug concentration exceeds EC50 for inhibition of EZH2 in human HeLa cells in CB-17 SCID mouse xenografted with human KARPAS422 cells at 25 mg/kg, po bid for 21 days and measured up to 10 hrs post first dose at day 1 by LC-MS analysis. It is filed as organism-based. The conditions noted are these: in vivo.
The test system of series [8] is KARPAS-422. The experiment in a line: Antitumor activity against human KARPAS422 cells xenografted in CB-17 SCID mouse assessed as tumor growth inhibition at 25 mg/kg, po bid and measured on day 21 by caliper method relative to control. The conditions noted are these: KARPAS-422, po, 504 h, read-out: TGI. The series is classed as functional.
The target of series [9] is T1, Histone-lysine N-methyltransferase EZH2. The experiment in a line: In vivo inhibition of EZH2 in CB-17 SCID mouse xenografted with human KARPAS422 cells assessed as reduction in trimethylation of H3K27 in tumor at 25 mg/kg, po bid for 21 days measured after 14 days by MSD-ELISA. It is filed as functional, organism-based. As to conditions: KARPAS-422.
Target sequence in this assay (Q15910 whole entry, looked up): as the sequence (Q15910 whole entry) above
Series [10] can be described thus: Protein binding in human plasma. The series is classed as ADME, cell-free. The conditions noted are these: read-out: PPB (converted).
In series [11] the test system is KARPAS-422. The experiment in a line: Antitumor activity against human KARPAS422 cells xenografted in CB-17 SCID mouse assessed as tumor growth inhibition at 25 mg/kg, po bid and measured on day 25 by caliper method relative to control. It is filed as functional. As to conditions: KARPAS-422, po, 600 h, read-out: TGI.
Series [12] concerns the target T1, Histone-lysine N-methyltransferase EZH2. The experiment in a line: Inhibition of N-terminal FLAG-tagged EZH2 in PRC2 complex (unknown origin) expressed in baculovirus infected Sf9 cells using H2N-RKQLATKAAR(Kme0)SAPATGGVKKP-NTPEGBiot peptide as substrate preincubated with [3H]SAM for 4 to 5 hrs followed by substrate addition and measured after 20 hrs by Topcount reader analysis.
Target sequence in this assay (Q15910 whole entry): as above

Series [13] is described as follows: Protein binding in mouse plasma. It is filed as ADME, cell-free. The conditions noted are these: read-out: PPB (converted).
In series [14] the target is T1, Histone-lysine N-methyltransferase EZH2. The experiment in a line: Binding affinity to N-terminal FLAG-tagged EZH2 in PRC2 complex (unknown origin) expressed in baculovirus infected Sf9 cells assessed as residence time at 21 nM pre-equilibrated with enzyme followed by incubation with bio-EZH2i and measured after 3 to 6 mins by TR-FRET assay. (TR-FRET usually uses a lanthanide donor and a delayed reading to cut background.)
Target sequence in this assay (Q15910 whole entry, looked up): as the sequence (Q15910 whole entry) above

Series [15] is described as follows: Oral bioavailability in CB-17 SCID mouse xenografted with human KARPAS422 cells at 25 mg/kg, bid for 21 days measured up to 10 hrs post first dose at day 1 by LC-MS analysis. It is filed as ADME, organism-based, KARPAS-422. As to conditions: in vivo.

Calls of active or inactive are those of the source. No cut-off for these calls is given here.

Consider `CSc1cc(C)[nH]c(=O)c1CNC(=O)c1c(C)n([C@H](C)[C@H]2CC[C@H](N3CC(OC4CC4)C3)CC2)c2ncccc12`, for which, in the series on KARPAS-422 [1], the GI50 lay within 12 to 12.2 nM. Moreover, the AUClast/dose in series [2] was 46.5 ng·h/mL/(mg/kg). Moreover, the fold induction at 72 h, 10 µM with CYP3A4 came out at 2.2. In series [3], the clearance is 55.8 mL/min/kg. The result in the series with KARPAS-422 [4] was Active. The Activity entry in series [5] is recorded as “Non-Toxic”. Moreover, in series [6], the EC50 came to 1.8 nM. Further, the “T>fEC50” value in [7] is 4 h. Besides, the inhibition in vivo at 25 mg/kg was 75% in the series on KARPAS-422 [8] and at least 91% in the series on KARPAS-422 [11]. In series [9], the inhibition result is “Active”. Further, the fraction unbound was 0.03 in [10] and 0.13 in series [13]. In [12], the IC50 came out at 0.057 nM. Besides, the TIME in [14] amounted to 57.5 h. In series [15], this molecule yielded a bioavailability of 15%.
